The values below come from US10752607B2, “Polymorphs of N-[(6-cyano-2-fluoro)-3-methoxyphenyl)methyl]-3-(methoxymethyl)-1-({4-[(2-oxopyridin-1-yl)methyl]phenyl}methyl)pyrazole-4-carboxamide as kallikrein inhibitors” (KALVISTA PHARMACEUTICALS LIMITED, priority 2016, dated 2020).

In one series the test system is rats. The conditions noted are these: systemic administration; cited from earlier work.
For series [1] the following is noted: in vivo; cited from earlier work.
The target in another series is T1, Human FXIa (Homo sapiens, UniProt P03951).
T1 construct: purchased Enzyme Research Laboratories
Kind of series: Determination of the % inhibition for FXIa (fluorogenic substrate Z-Gly-Pro-Arg-AFC). Format: biochemical. As to conditions: 40 μM test compound, 25° C. As to the method: Determination of the % Inhibition for FXIa
FXIa inhibitory activity in vitro was determined using standard published methods (see e.g. Johansen et al., Int. J. Tiss. Reac. 1986, 8, 185; Shori et al., Biochem. Pharmacol., 1992, 43, 1209; Stürzebecher et al., Biol. Chem. Hoppe-Seyler, 1992, 373, 1025). Human FXIa (Enzyme Research Laboratories) was incubated at 25° C. with the fluorogenic substrate Z-Gly-Pro-Arg-AFC and 40 μM of the test compound. Residual enzyme activity (initial rate of reaction) was determined by measuring the change in […].

The nature of series [2]: Pharmacokinetic study, single oral dose in male Sprague-Dawley rats. The series is classed as in vivo. The conditions noted are these: male Sprague-Dawley rat, 10% DMSO/10% cremophor/80% SWFI, plasma. As to the method: A pharmacokinetic study of N-[(6-cyano-2-fluoro-3-methoxyphenyl)methyl]-3-(methoxymethyl)-1-({4-[(2-oxopyridin-1-yl)methyl]phenyl}methyl)pyrazole-4-carboxamide was performed to assess the pharmacokinetics following a single oral dose in male Sprague-Dawley rats. Two rats were given a single po dose of 5 mL/kg of a nominal 2 mg/mL (10 mg/kg) composition of test compound in vehicle. Following dosing, blood samples were collected over a period of 24 hours. Sample times were 5, 15 and 30 minutes then 1, 2, 4, 6, 8 and […]. Following collection, blood samples were centrifuged and the plasma fraction analysed for concentration of test compound by LCMS.

The test system of series [3] is LPS-induced disseminated intravascular coagulation. The conditions noted are these: cited from earlier work.
For series [4] the following is noted: contacting blood with the inhibitor; cited from earlier work.
In series [5] the test system is intrinsic pathway of coagulation. The conditions noted are these: in vitro; cited from earlier work.

T1 sequence (P03951 388-625 limits assumed): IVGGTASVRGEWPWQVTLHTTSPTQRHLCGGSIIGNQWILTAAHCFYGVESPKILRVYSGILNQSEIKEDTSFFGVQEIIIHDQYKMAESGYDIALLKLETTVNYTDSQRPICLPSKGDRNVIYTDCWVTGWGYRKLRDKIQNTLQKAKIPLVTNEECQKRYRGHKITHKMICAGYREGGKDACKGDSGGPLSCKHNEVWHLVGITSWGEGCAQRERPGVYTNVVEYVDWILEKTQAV
T1 sequence (P03951 19-387 partner limits assumed): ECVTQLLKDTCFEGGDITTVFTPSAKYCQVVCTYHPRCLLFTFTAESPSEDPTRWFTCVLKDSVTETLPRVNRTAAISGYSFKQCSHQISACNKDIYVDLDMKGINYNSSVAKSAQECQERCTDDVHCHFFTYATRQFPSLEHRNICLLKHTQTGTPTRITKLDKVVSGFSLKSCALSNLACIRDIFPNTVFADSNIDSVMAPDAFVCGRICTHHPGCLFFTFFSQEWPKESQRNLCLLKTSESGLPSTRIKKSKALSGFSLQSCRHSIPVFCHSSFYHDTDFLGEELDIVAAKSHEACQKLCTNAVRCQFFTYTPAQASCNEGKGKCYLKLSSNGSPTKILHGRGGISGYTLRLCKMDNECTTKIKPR

As for `N=C(N)c1ccc(CNC(=O)c2cnn(Cc3ccccc3)c2)cc1` [ASP-440], the hematoma expansion result in the series on rats is reported as “reduced hematoma expansion”. Moreover, in series [1], the oral availability entry is “poor oral availability”.

Consider `COCc1nn(Cc2ccc(Cn3ccccc3=O)cc2)cc1C(=O)NCc1c(C#N)ccc(OC)c1F` [N-[(6-cyano-2-fluoro-3-methoxyphenyl)methyl]-3-(methoxymethyl)-1-({4-[(2-oxopyridin-1-yl)methyl]phenyl}methyl)pyrazole-4-carboxamide], for which the inhibition at 40 µM against Human FXIa amounted to 28%. The highest concentration (Cmax) came out at 397 ng/mL in series [2] (single po dose 5.5 mg/kg) and 360 ng/mL in series [2] (single po dose 7.8 mg/kg). The Tmax in series [2] (single po dose 5.5 mg/kg) is 30 min; in series [2] (single po dose 7.8 mg/kg), 60 min.

Take `Cl.NCC1CCC(C(=O)N[C@@H](Cc2ccccc2)C(=O)Nc2ccc(CC(=O)O)cc2)CC1` (stereo partly shown) [PKSI-527]: the “platelet count, fibrinogen level and FDP level” value in series [3] is “significantly suppressed the decrease in platelet count and fibrinogen level as well as the increase in FDP level”.

On to Ecallantide, for which, in series [4], the “activated clotting time (ACT)” value is given as “increase in activated clotting time (ACT)”. Besides, the “contact activated induced coagulation” value in series [5] is “delay contact activated induced coagulation”.
